Test results reported in patent US20230241014A1, “MEK-INHIBITORS FOR THE TREATMENT OR PREVENTION OF CORONAVIRUS INFECTIONS AND/OR COVID-19 CYTOKINE STORM” (priority 2020, published 2023).
Where two headings read alike, the source gives them in different places.

Assays:
SARS-CoV-2 = type: cell-based; details: CaCo-2 cells infected SARS-CoV-2 (MOI 0.1); 0.098-100 μM, 24 h
SARS-CoV-2 strain FI = experiment: Plaque assay, infection of Vero cells with SARS-CoV-2 upon MEK inhibition; type: cell-based; details: MOI 0.01, 50 μM, 24 h, 36 h and 48 h
Method: To determine the virus titer a standard plaque assay was performed. Vero cells were infected with SARS-CoV-2 strain FI (MOI 0.01). 1 hour post infection, the cells were treated with 50 μM ATR-002 or the respective amount of DMSO as a control. The compounds were present in the culture medium during the complete infection time. After 24, 36 and 48 hpi, supernatants were collected and virus titers quantified by plaque assay below.
Vero E6 cells were seeded at 100% confluency in 6-well plates (Greiner Bio-One, Cat. 657-160). 6-fold dilutions of virus samples were prepared in Vero E6 infection medium (IMDM, Gibco, Cat. 12440-053) supplemented with 5% FCS (Capricorn, Cat. FBS-12A) and 1% Penicillin/Streptomycin (Sigma Aldrich Cat. P4333). The cells were washed once with Vero E6 infection medium before infection with 1 mL per well of the virus dilutions for 1 h at 37° C., 5% CO2. […] The virus titer was calculated based on the number of plaques per well and the respective dilution factor.

SARS-CoV-2 (FI) [1] = type: cell-based
[2] = test system: cytokine & chemokine gene expression in lungs; experiment: Acute lung injury (ALI) mouse model, LPS induced cytokine and chemokine gene expression; type: in vivo; details: LPS 5 mg/kg i.p.; 25 mg/kg i.p. 1 h post stimulation; 6 h post treatment
[3] = test system: IL-6, IL-8, MCP-1, IP-10 and CCL5 mRNA; experiment: Pro-inflammatory cytokine mRNA in SARS-CoV-2 infected Calu-3 cells (real-time PCR); type: cell-based, Homo sapiens; details: Calu-3, SARS-CoV-2 (FI) MOI 0.01, increasing amounts
[4] = test system: peripheral blood mononuclear cells (PBMC's); experiment: T-Cell Inflammation Inhibition Assay (ConA Stimulation); type: cell-based, human; details: ATR-002 100, 50, 25 μM, Dexamethasone 100 nM, 24 h
[5] = human, in vivo
Method: Specifically, as described previously, in Phase I clinical studies PD-0184264 was administered with a starting dose of 100 mg and up to three escalation steps in seven arms, following a single ascending dose/multiple ascending dose (SAD/MAD) regime. Administration scheme was one dose PD-0184264, escalating 100 mg to 900 mg (SAD), followed by seven doses PD-0184264, escalating 100 mg to 600 mg QD over seven days (MAD).

SARS-CoV-2 (FI) [6] = type: cell-based; details: primary human ALI cultures, MOI 1.0, 50 μM and 100 μM, three cultures
[7] = test system: MxA and IL8 mRNA expression; experiment: poly (I:C) stimulation of A549 cells, MxA and IL8 mRNA; details: A549, 100 ng/ml poly (I:C), 24 h

O=C(O)c1ccc(F)c(F)c1Nc1ccc(I)cc1Cl [ATR-002, 2-(2-chloro-4-iodophenylamino)-N-3,4-difluoro benzoic acid]
inhibition of SARS-CoV-2 (virus titer) (SARS-CoV-2): seen at concentrations of 50 and 100 μM | inhibition of nucleocapsid protein (viral marker) (SARS-CoV-2): seen at concentrations of 50 and 100 μM | viral load (plaque assay) (SARS-CoV-2 strain FI): lower viral load than control cells | duration of the effect on progeny viral particles (SARS-CoV-2 (FI) [1]; Calu-3, MOI 0.01, 10-150 μM): maintained over the total infection time of 72 hours | production of progeny viral particles (SARS-CoV-2 (FI) [1]; Calu-3, MOI 0.01, 10-150 μM, 24, 48, 72 h): concentration dependent decrease | cell damage of infected cells (light microscopy) (SARS-CoV-2 (FI) [1]; Calu-3 infected with SARS-CoV-2): did not show the characteristic cell damage | IL-1beta gene expression in lung [2]: decrease | IL-8 gene expression in lung [2]: decrease | IP-10 gene expression in lung [2]: decrease | MCP-1 gene expression in lung [2]: decrease | MIP-1beta gene expression in lung [2]: decrease | TNF-alpha gene expression in lung [2]: decrease | expression of pro-inflammatory cytokines (IL-6, IL-8, MCP-1, IP-10, CCL5 mRNA) [3]: reduce the expression of pro-inflammatory cytokines | inhibition of cytokine/chemokine stimulation (summary) [4]: significant, dose dependent inhibition | pharmacokinetic profile [5]: supports the intended once-daily regime | pharmacokinetics exposure, blood levels [5]: maintenance of clinically relevant blood levels | safety of each dose cohort (Safety Review Committee) [5]: considered to be safe | production of progeny viral particles (SARS-CoV-2 (FI) [6]): completely blocked the production of progeny viral particles | MxA mRNA expression (anti-viral interferon system) [7]: constant expression of MxA mRNA | IL8 mRNA expression ([7]; even low concentrations): strong reduction
